In ChEMBL document CHEMBL5634140, “Discovery of benzyloxy benzamide derivatives as potent neuroprotective agents against ischemic stroke” (Eur J Med Chem, 2023):
Values after ≈ are worked out from the molar mass of the structure shown. Active and inactive are the calls of the source. No cut-off for these calls is given here.

What was measured:
[1] = test system: SH-SY5Y; assay: Neuroprotective activity against glutamate induced human SH-SY5Y cells at 1 uM preincubated for 30 mins followed by glutamate addition and measured after 24 hrs by LDH based assay; format: functional; conditions: time 24.5 hrs
[2] = test system: SH-SY5Y; assay: Neuroprotective activity against glutamate induced human SH-SY5Y cells at 10 uM preincubated for 30 mins followed by glutamate addition and measured after 24 hrs by LDH based assay; format: functional; conditions: time 24.5 hrs
[3] = test system: SH-SY5Y; assay: Neuroprotective activity against glutamate induced human SH-SY5Y cells at 0.1 uM preincubated for 30 mins followed by glutamate addition and measured after 24 hrs by LDH based assay; format: functional; conditions: time 24.5 hrs
[4] = test system: SH-SY5Y; assay: Cytotoxicity against human SH-SY5Y cells at 25 uM incubated for 72 hrs by CCK8 assay; format: toxicity, cell-based
[5] = Mean residence time in Sprague-Dawley rat at 5 mg/kg, iv measured upto 24 hrs by LC-MS/MS analysis; format: ADME, organism-based; conditions: in vivo
[6] = Tmax in Sprague-Dawley rat at 10 mg/kg, po measured upto 24 hrs by LC-MS/MS analysis; format: ADME, organism-based; conditions: in vivo
[7] = AUC(0 to infinity) in Sprague-Dawley rat at 10 mg/kg, po measured upto 24 hrs by LC-MS/MS analysis; format: ADME, organism-based; conditions: in vivo
[8] = Cmax in Sprague-Dawley rat at 10 mg/kg, po measured upto 24 hrs by LC-MS/MS analysis; format: ADME, organism-based; conditions: in vivo
[9] = AUC(0 to infinity) in Sprague-Dawley rat at 5 mg/kg, iv measured upto 24 hrs by LC-MS/MS analysis; format: ADME, organism-based; conditions: in vivo
[10] = test system: Cortical neurone; assay: Neuroprotective activity against glutamate induced Sprague-Dawley rat primary cortical neuron at 0.1 to 10 uM preincubated for 30 mins followed by glutamate/glycine addition for 30 mins and measured after 24 hrs by LDH based assay; format: functional, cell-based; conditions: dose 0.1-10 µM, time 25.0 hrs
[11] = Half life in Sprague-Dawley rat at 10 mg/kg, po measured upto 24 hrs by LC-MS/MS analysis; format: ADME, organism-based; conditions: in vivo
[12] = Apparent volume of distribution in Sprague-Dawley rat at 5 mg/kg, iv measured upto 24 hrs by LC-MS/MS analysis; format: ADME, organism-based; conditions: in vivo, read-out: Vz
[13] = Mean residence time in Sprague-Dawley rat at 10 mg/kg, po measured upto 24 hrs by LC-MS/MS analysis; format: ADME, organism-based; conditions: in vivo
[14] = Cmax in Sprague-Dawley rat at 5 mg/kg, iv measured upto 24 hrs by LC-MS/MS analysis; format: ADME, organism-based; conditions: in vivo
[15] = Half life in Sprague-Dawley rat at 5 mg/kg, iv measured upto 24 hrs by LC-MS/MS analysis; format: ADME, organism-based; conditions: in vivo
[16] = AUC(0 to t) in Sprague-Dawley rat at 5 mg/kg, iv measured upto 24 hrs by LC-MS/MS analysis; format: ADME, organism-based; conditions: in vivo
[17] = AUC(0 to t) in Sprague-Dawley rat at 10 mg/kg, po measured upto 24 hrs by LC-MS/MS analysis; format: ADME, organism-based; conditions: in vivo
[18] = Oral bioavailability in Sprague-Dawley rat at 10 mg/kg measured upto 24 hrs by LC-MS/MS analysis; format: ADME, organism-based; conditions: in vivo
[19] = Apparent clearance in Sprague-Dawley rat at 2 mg/kg, iv measured upto 24 hrs by LC-MS/MS analysis; format: ADME, organism-based; conditions: in vivo, read-out: CL(app)
[20] = Drug concentration in Sprague-Dawley rat plasma at 10 mg/kg, iv after 0.25 hrs by LC-MS/MS analysis; format: ADME, organism-based
[21] = Ratio of drug concentration in Sprague-Dawley rat brain to plasma at 10 mg/kg, iv measured after 0.25 hrs by LC-MS/MS analysis; format: ADME, organism-based
[22] = Solubility of the compound at pH 7.4; format: physicochemical; conditions: buffer
[23] = test system: Neuron; assay: Inhibition of PSD95 to nNOS protein-protein interaction in glutamate induced rat neurons at 2 to 20 uM by co-immunoprecipitation method; format: cell-based; conditions: dose 2-20 µM
[24] = AUC(0 to infinity) in Sprague-Dawley rat at 2 mg/kg, iv measured upto 24 hrs by LC-MS/MS analysis; format: ADME, organism-based; conditions: in vivo
[25] = test system: Rattus norvegicus; assay: Neuroprotective activity against MCAO-reperfusion induced Sprague-Dawley rat assessed as reduction in infarct volume at 10 mg/kg, ip by TTC staining based analysis (reference value: 40.02 +/- 2.61 %); format: functional; parameters: scale not given: the % may be the effect or the level left
[26] = Apparent volume of distribution in Sprague-Dawley rat at 2 mg/kg, iv measured upto 24 hrs by LC-MS/MS analysis; format: ADME, organism-based; conditions: in vivo, read-out: Vz
[27] = Cmax in Sprague-Dawley rat at 2 mg/kg, iv measured upto 24 hrs by LC-MS/MS analysis; format: ADME, organism-based; conditions: in vivo
[28] = Half life in Sprague-Dawley rat at 2 mg/kg, iv measured upto 24 hrs by LC-MS/MS analysis; format: ADME, organism-based; conditions: in vivo
[29] = Drug concentration in Sprague-Dawley rat brain at 10 mg/kg, iv after 0.25 hrs by LC-MS/MS analysis; format: ADME, organism-based; conditions: read-out: Ct
[30] = AUC(0 to t) in Sprague-Dawley rat at 2 mg/kg, iv measured upto 24 hrs by LC-MS/MS analysis; format: ADME, organism-based; conditions: in vivo
[31] = Drug concentration in Sprague-Dawley rat plasma at 10 mg/kg, iv after 1 hr by LC-MS/MS analysis; format: ADME, organism-based
[32] = Drug concentration in Sprague-Dawley rat brain at 10 mg/kg, iv after 0.5 hrs by LC-MS/MS analysis; format: ADME, organism-based; conditions: read-out: Ct
[33] = Ratio of drug concentration in Sprague-Dawley rat brain to plasma at 10 mg/kg, iv measured after 0.5 hrs by LC-MS/MS analysis; format: ADME, organism-based
[34] = test system: Neuron; assay: Neuroprotective activity against glutamate-induced excitotoxicity in rat primary neurons at 0.1 uM; format: functional, cell-based
[35] = test system: Rattus norvegicus; assay: Neuroprotective activity against MCAO-reperfusion induced Sprague-Dawley rat assessed as reduction in neurological deficit score at 10 mg/kg, ip by TTC staining based analysis (reference value: 2.93 +/- 0.12); format: functional
[36] = Drug concentration in Sprague-Dawley rat brain at 10 mg/kg, iv after 1 hr by LC-MS/MS analysis; format: ADME, organism-based; conditions: read-out: Ct
[37] = Drug concentration in Sprague-Dawley rat plasma at 10 mg/kg, iv after 0.5 hrs by LC-MS/MS analysis; format: ADME, organism-based
[38] = Mean residence time in Sprague-Dawley rat at 2 mg/kg, iv measured upto 24 hrs by LC-MS/MS analysis; format: ADME, organism-based; conditions: in vivo
[39] = Ratio of drug concentration in Sprague-Dawley rat brain to plasma at 10 mg/kg, iv measured after 1 hr by LC-MS/MS analysis; format: ADME, organism-based
[40] = test system: Rattus norvegicus; assay: Neuroprotective activity against MCAO-reperfusion induced Sprague-Dawley rat assessed as reduction in infarct volume at 6 mg/kg, ip by TTC staining based analysis (reference value: 40.02 +/- 2.61 %); format: functional; parameters: scale not given: the % may be the effect or the level left

SMILES: Nc1cc(Cl)cc(Cl)c1OCc1ccc(S(N)(=O)=O)cc1
- Activity [1]: 15.52%
- Activity [2]: 33.84%
- Activity [3]: <0%
- Activity [4]: 6.21%

SMILES: NCCCNC(=O)c1ccc(COc2c(N)cc(Cl)cc2Cl)cc1
- MRT [5]: 1.46 h
- Activity [1]: 39.65%
- Tmax [6]: 1.5 h
- AUC ([7]; po, 10 mg/kg, 24 h): 365.22 ng·h/mL
- Cmax [8]: 69.3 ng/mL
- AUC [9]: 317.96 ng·h/mL
- Activity [2]: 61.33%
- Activity [10]: Active
- half-life [11]: 1.96 h
- Vd [12]: 24.7 L/kg
- Activity [3]: 21.18%
- MRT [13]: 3.26 h
- Cmax [14]: 471 ng/mL
- half-life [15]: 2.67 h
- AUC(0-t) at 24 h [16]: 296 ng·h/mL
- AUC(0-t) at 24 h [17]: 309 ng·h/mL
- F ([18]; po, 10 mg/kg, 24 h): 21.79%
- Activity [4]: 1.77%

SMILES: Nc1cc(Cl)cc(Cl)c1OCc1ccc(C(=O)N[C@H]2CCCC[C@@H]2N)cc1
- Activity [1]: 39.66%
- Activity [2]: 65.52%
- Activity [3]: 10.1%
- Activity [4]: 2.42%

SMILES: Nc1cc(Cl)cc(Cl)c1OCc1ccc(C(=O)NCCO)cc1
- Activity [1]: 26.31%
- Activity [2]: 41.58%
- Activity [3]: 4%
- Activity [4]: 1.21%

SMILES: C[C@@H](N)CNC(=O)c1ccc(COc2c(N)cc(Cl)cc2Cl)cc1
- Activity [1]: 41.38%
- Activity [2]: 63.79%
- Activity [3]: 13.55%
- Activity [4]: 3.13%

SMILES: NCCNC(=O)c1ccc(COc2c(N)cc(Cl)cc2Cl)cc1
- Activity [1]: 41.14%
- Activity [2]: 67.8%
- Activity [3]: 12.87%
- Activity [4]: < 0%

SMILES: NCC(=O)Nc1cc(Cl)cc(Cl)c1OCc1ccc(C(=O)Nc2ccccc2N)cc1
- clearance [19]: 26.4 mL/min/kg
- concentration at 0.25 h [20]: 1890 ng/mL
- Kp at 0.25 h [21]: 0.0056
- solubility [22]: 23 µg/mL (≈ 50.1 µM)
- inhibition [23]: Active
- Tmax [6]: 0.83 h
- AUC(0-inf) [24]: 1280 ng·h/mL
- AUC(0-inf) ([7]; Sprague-Dawley): 1260 ng·h/mL
- Cmax [8]: 233 ng/mL
- Activity [25]: 28.31%
- Vd [26]: 8.81 L/kg
- Cmax [27]: 2510 ng/mL
- half-life [11]: 4.26 h
- half-life [28]: 4.08 h
- concentration at 0.25 h [29]: 10.6 ng/g
- AUC(0-t) at 24 h [30]: 1270 ng·h/mL
- concentration at 1 h [31]: 329 ng/mL
- MRT [13]: 3.26 h
- concentration at 0.5 h [32]: 7.64 ng/g
- Kp at 0.5 h [33]: 0.0082
- Activity [34]: Active
- Activity [35]: 2.27
- concentration at 1 h [36]: 10 ng/g
- AUC(0-t) at 24 h [17]: 1240 ng·h/mL
- concentration at 0.5 h [37]: 935 ng/mL
- bioavailability ([18]; Sprague-Dawley): 19.6%
- MRT [38]: 1.46 h
- Kp at 1 h [39]: 0.0305

SMILES: Nc1cc(Cl)cc(Cl)c1OCc1ccc(NS(=O)(=O)c2ccccc2)cc1
- Activity [1]: 38.63%
- Activity [2]: 64.69%
- Activity [3]: 15.64%
- Activity [4]: 1.96%

SMILES: NNC(=O)c1ccc(COc2c(N)cc(Cl)cc2Cl)cc1
- Activity [1]: 6.15%
- Activity [2]: 22.56%
- Activity [3]: 5.89%
- Activity [4]: 0.59%

SMILES: Nc1ccccc1NC(=O)c1ccc(COc2c(N)cc(Cl)cc2Cl)cc1
- Activity [1]: 41.87%
- Activity [2]: 63.3%
- Activity [3]: 14.78%
- Activity [4]: 0.24%

SMILES: CC1=NN(c2ccccc2)C(=O)C1 [EDARAVONE]
- Activity [40]: 27.06%

SMILES: CN(CCN)C(=O)c1ccc(COc2c(N)cc(Cl)cc2Cl)cc1
- Activity [1]: 32.51%
- Activity [2]: 44.82%
- Activity [3]: 11.33%
- Activity [4]: 2.21%

SMILES: CN(C)CCNC(=O)c1ccc(COc2c(N)cc(Cl)cc2Cl)cc1
- Activity [1]: 15.63%
- Activity [2]: 32.3%
- Activity [3]: 2.56%
- Activity [4]: 1.52%

SMILES: CS(=O)(=O)Nc1ccc(COc2c(N)cc(Cl)cc2Cl)cc1
- Activity [1]: 45.26%
- Activity [2]: 69.19%
- Activity [3]: 15.4%
- Activity [4]: 3.57%

SMILES: Nc1cc(Cl)cc(Cl)c1OCc1ccc(C(=O)N[C@@H]2CCCC[C@H]2N)cc1
- Activity [1]: 41.87%
- Activity [2]: 63.06%
- Activity [3]: 12.32%
- Activity [4]: 2.51%

SMILES: Nc1cc(Cl)cc(Cl)c1OCc1ccc(NS(=O)(=O)C(F)(F)F)cc1
- Activity [1]: 36.13%
- Activity [2]: 60.31%
- Activity [3]: 10.69%
- Activity [4]: 2.21%

SMILES: COCCNC(=O)c1ccc(COc2c(N)cc(Cl)cc2Cl)cc1
- Activity [1]: 40.46%
- Activity [2]: 65.14%
- Activity [3]: 11.71%
- Activity [4]: 1.33%

SMILES: Nc1cc(Cl)cc(Cl)c1OCc1ccc(C(=O)NCC(=O)O)cc1
- Activity [1]: 47.04%
- Activity [2]: 66.01%
- Activity [3]: 18.96%
- Activity [4]: 5.67%

SMILES: Nc1cc(Cl)cc(Cl)c1OCc1ccc(C(=O)NCCS)cc1
- Activity [1]: 35.12%
- Activity [2]: 61.07%
- Activity [3]: 9.67%
- Activity [4]: 5.23%
